Test results from patent US20250213572A1, “TYK2 INHIBITORS AND USES THEREOF” (Takeda Pharmaceutical Company Limited, priority 2022, published 2025).
Converted amounts (≈) assume the structure as drawn. “Also recorded” adds a separate entry of the source. Read-outs that look alike come from different tables or passages of the source.

Assays:
[1] = biological target: CYP450 2C19 (Homo sapiens, UniProt P33261); assay: CYP450 inhibition, 2C19; type: in vitro ADME
[2] = system: TYK2-dependent IL12-induced INFγ production; assay: TYK2-dependent IL12-induced INFγ production in rat; type: in vivo; details: not shown
[3] = system: panel of 631 kinases; assay: Binding screen against a panel of 631 kinases; details: 1 micromolar concentration
[4] = FaSSIF/FeSSIF solubility; type: physicochemical
[5] = system: hepatocytes; assay: In vitro metabolism in hepatocytes and elimination route; type: in vitro ADME
[6] = type: in vivo, human
Source text: The observed accumulation ratio, between Day 1 and Day 28, in this study was consistent with the value obtained in the previous study in healthy volunteers.

[7] = Kinetic solubility; type: physicochemical; details: kinetic from dmso stock
[8] = system: TYK2-dependent interferon gamma (IFNγ); assay: Ex-vivo whole blood IL-12/IL-18 stimulated IFNγ production (pharmacodynamics); type: in vivo, human; details: after oral dosing
Procedure: Pharmacodynamic Results: The PD effect of treatment within this study was assessed using an ex-vivo immune-assay measuring the amount of TYK2-dependent interferon gamma (IFNγ) produced by whole blood samples that were stimulated with the cytokines IL-12 and IL-18 at baseline (predose) and following treatment.

[9] = Nonclinical oral absorption across species (summary); type: in vivo
[10] = In vivo pharmacokinetics, mouse; details: plasma
[11] = system: moderate to severe plaque psoriasis; assay: Phase 2b study in plaque psoriasis (Example 4): efficacy; type: in vivo, human; details: for Achieving PASI 75 at Week 12, number of patients: mITT
Source text: Efficacy Analyses: The primary endpoint can be translated as a responder analysis, where a subject will be classified as responder if he or she achieves PASI-75 at Week 12. The comparison between groups for the primary endpoint will be done using a Cochran-Mantel-Haenszel (CMH), with prior treatment with biologics included as a stratification factor. The primary efficacy analysis will be performed on the intent-to-treat (ITT) analysis set, while the per-protocol (PP) analysis set will be used as a sensitivity analysis.
The secondary endpoints involving proportions of subjects will be analyzed using the same approach (CMH test) as described for the primary efficacy analysis, at each time point and based on the ITT analysis. The continuous secondary endpoints involving absolute change from baseline will be analyzed using a mixed effect model repeated measures method (MMRM) based on the ITT analysis set only. The model will include treatment, visit, treatment-by-visit interaction, and prior treatment with biologics as fixed effects, and baseline score as a covariate.

[12] = ALog D; type: physicochemical
[13] = human, in vivo
[14] = biological target: hERG (Homo sapiens, UniProt Q12809); assay: hERG (Patch Clamp); type: cell-based
[15] = system: TYK2; assay: rWB IFNα IP-10 (rat whole-blood TYK2-dependent IFNα-induced IP10 assay); type: cell-based

Chain of hERG (Q12809 whole entry): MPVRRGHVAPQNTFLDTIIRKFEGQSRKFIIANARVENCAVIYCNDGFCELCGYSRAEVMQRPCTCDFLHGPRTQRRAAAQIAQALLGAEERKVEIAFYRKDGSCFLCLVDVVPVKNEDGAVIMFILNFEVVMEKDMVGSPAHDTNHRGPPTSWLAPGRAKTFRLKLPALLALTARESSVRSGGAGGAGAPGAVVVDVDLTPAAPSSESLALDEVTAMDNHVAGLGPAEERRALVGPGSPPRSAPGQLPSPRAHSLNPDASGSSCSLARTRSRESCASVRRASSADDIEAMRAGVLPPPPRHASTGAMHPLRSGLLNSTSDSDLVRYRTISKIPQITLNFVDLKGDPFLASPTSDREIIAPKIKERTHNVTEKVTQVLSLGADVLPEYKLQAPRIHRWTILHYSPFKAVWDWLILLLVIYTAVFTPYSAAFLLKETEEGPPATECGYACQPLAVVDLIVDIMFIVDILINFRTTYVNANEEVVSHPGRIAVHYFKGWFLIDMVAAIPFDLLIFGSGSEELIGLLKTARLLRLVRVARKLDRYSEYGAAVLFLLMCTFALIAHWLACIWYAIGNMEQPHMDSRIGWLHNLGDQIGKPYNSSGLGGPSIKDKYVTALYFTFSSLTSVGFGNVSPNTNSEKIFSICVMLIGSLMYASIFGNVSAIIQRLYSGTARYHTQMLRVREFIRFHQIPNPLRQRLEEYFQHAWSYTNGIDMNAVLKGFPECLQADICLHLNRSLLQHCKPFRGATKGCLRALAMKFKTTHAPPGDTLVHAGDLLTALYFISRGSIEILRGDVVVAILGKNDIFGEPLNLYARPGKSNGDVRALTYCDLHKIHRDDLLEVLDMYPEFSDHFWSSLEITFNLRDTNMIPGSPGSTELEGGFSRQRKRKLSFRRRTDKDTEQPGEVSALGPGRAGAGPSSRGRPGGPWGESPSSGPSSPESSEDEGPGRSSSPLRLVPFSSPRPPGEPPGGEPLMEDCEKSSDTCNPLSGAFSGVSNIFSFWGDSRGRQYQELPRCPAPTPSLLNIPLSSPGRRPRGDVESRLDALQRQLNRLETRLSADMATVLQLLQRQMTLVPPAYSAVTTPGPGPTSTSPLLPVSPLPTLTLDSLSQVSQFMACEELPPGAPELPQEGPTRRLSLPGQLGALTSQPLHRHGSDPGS
Chain of CYP450 2C19 (P33261 whole entry): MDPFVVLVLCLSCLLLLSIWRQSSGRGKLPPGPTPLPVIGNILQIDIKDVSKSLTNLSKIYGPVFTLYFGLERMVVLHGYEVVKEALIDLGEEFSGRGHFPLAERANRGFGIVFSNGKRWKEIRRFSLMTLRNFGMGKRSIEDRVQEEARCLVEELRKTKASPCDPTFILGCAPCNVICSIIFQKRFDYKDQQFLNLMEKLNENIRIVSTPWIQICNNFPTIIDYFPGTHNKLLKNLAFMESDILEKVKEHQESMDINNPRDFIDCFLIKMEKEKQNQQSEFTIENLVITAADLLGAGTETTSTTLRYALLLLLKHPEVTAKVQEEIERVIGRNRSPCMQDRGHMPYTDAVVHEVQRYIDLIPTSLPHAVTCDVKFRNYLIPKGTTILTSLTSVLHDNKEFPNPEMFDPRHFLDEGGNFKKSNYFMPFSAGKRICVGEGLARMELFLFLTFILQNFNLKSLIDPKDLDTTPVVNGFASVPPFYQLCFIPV

Which IC50 [1] does the source give for `CNc1cc(Nc2cccn(-c3ccccn3)c2=O)nc2c(C(=O)N[C@@H]3CC[C@H]3OC)cnn12` [Compound 1, N-((1R,2R)-2-methoxycyclobutyl)-7-(methylamino)-5-((2-oxo-2H-[1,2′-bipyridin]-3-yl)amino)pyrazolo[1,5-a]pyrimidine-3-carboxamide] here?
The IC50 was greater than 8 µM.

And the “TYK2-dependent IL12-induced INFγ production” value [2]?
Its value is “Concentration-dependent suppression”.

And the “inhibition of PIP51K1C” value [3]?
Its value is 54 % inhibition.

What about the “kinases inhibited with >50% inhibition in panel of 631 kinases” value [3] of the same compound?
Its value is “Only one kinase was inhibited with >50% inhibition”.

And the solubility ([4]; FaSSIF, read-out: FaSSIF solubility)?
Its solubility is 0.013 mg/mL (≈ 28.2 µM).

And the solubility ([4]; FeSSIF, read-out: FeSSIF solubility)?
The solubility was 0.07 mg/mL (≈ 152 µM).

And the route of elimination [5]?
The route of elimination was “primarily via oxidative metabolism by multiple CYP450 enzymes followed by conjugation”.

And the overall metabolism ([5]; hepatocytes)?
Its overall metabolism is “low overall metabolism”.

And the “median time of mean peak plasma concentrations” value ([6]; Cohorts 1-3, 5 to 30 mg once daily)?
The value was 3 to 4 h.

And the “inter-subject variability, CV for AUC0-tau” value ([6]; human, in vivo)?
The value was 47-269%.

And the “inter-subject variability, CV for Cmax” value ([6]; human, in vivo)?
Its value is 55-111%.

What about the solubility kinetic [7] of the same compound?
Its solubility kinetic is 32 µM (≈ 14.7 µg/mL).

And the “IFNγ production in cytokine-stimulated ex vivo whole blood” value [8]?
The value was “greater reduction in IFNγ; also recorded: dose-dependent inhibition of IFNy; also recorded: rapid inhibition of interferon gamma (IFNγ) production”.

And the absorption [9]?
The absorption was “good absorption across species”.

What about the half-life ([10]; mouse) of the same compound?
Its half-life is 2 h.

What about the clearance ([10]; 1 mg/kg, Mouse, 1 mpk IV dose, read-out: Clp, obs) of the same compound?
The clearance was 0.96 L/h/kg.

And the Vd ([10]; 1 mg/kg, Mouse, 1 mpk IV dose, read-out: Vss)?
The Vd was 1.3 L/kg.

And the Tmax ([10]; 30 mg/kg, Mouse, PO 30 mpk)?
Its Tmax is 0.4 h.

What about the bioavailability ([10]; 30 mg/kg, Mouse, PO 30 mpk) of the same compound?
Its bioavailability is 81%.

What about the “Achieving PASI 75 at Week 12, number of patients” value ([11]; 2 mg QD (n = 50)) of the same compound?
Its value is 9 Number of patients.

What about the “PASI 75 at Week 12, proportion difference” value ([11]; 2 mg QD versus placebo) of the same compound?
Its value is 12.3.

And the “Achieving PASI 75 at Week 12, number of patients” value ([11]; 5 mg QD (n = 52))?
Its value is 23 Number of patients.

What about the “PASI 75 at Week 12, proportion difference” value ([11]; 5 mg QD versus placebo) of the same compound?
The value was 38.5.

And the “Achieving PASI 75 at Week 12, number of patients” value ([11]; 15 mg QD (n = 53))?
The value was 36 Number of patients.

What about the “PASI 75 at Week 12, proportion difference” value ([11]; 15 mg QD versus placebo) of the same compound?
Its value is 61.9.

And the “Achieving PASI 75 at Week 12, number of patients” value ([11]; 30 mg QD (n = 52))?
The value was 35 Number of patients.

And the “PASI 75 at Week 12, proportion difference” value ([11]; 30 mg QD versus placebo)?
Its value is 61.5.

And the “patients who achieved clear skin” value ([11]; 30 mg QD, week 12)?
The value was 33%.

What about the “fractions of patients achieving PGA 1 and PGA 0 at Week 12” value ([11]; FIG. 15) of the same compound?
The value was “both increased with increasing dose of Compound 1”.

What about the “primary endpoint (PASI 75 response at week 12)” value ([11]; in vivo) of the same compound?
The value was “achieved with Compound 1 at doses ≥5 mg”.

And the “ALog D” value [12]?
The value was 2.0.

And the “overall safety and tolerability” value [13]?
The value was “generally safe and well tolerated”.

What about the IC50 [14] of the same compound?
Its IC50 is greater than 30 µM.
